Experiments:
Format in all cases: functional
[1] = tested on: Mus musculus; test: Effect of compound on life span of mice inoculated intravenously with lewis lung carcinoma at the dose of 400 mg/kg in experiment 1; conditions: route intravenous
[2] = tested on: Mus musculus; test: Effect of compound on life span of mice inoculated intravenously with lewis lung carcinoma at the dose of 400 mg/kg in experiment 3; conditions: route intravenous
[3] = tested on: Mus musculus; test: Effect of compound on life span of mice inoculated intravenously with lewis lung carcinoma at the dose of 50 mg/kg in experiment 2; conditions: route intravenous
[4] = tested on: Mus musculus; test: Effect of compound on life span of mice inoculated intravenously with lewis lung carcinoma at the dose of 50 mg/kg in experiment 3; conditions: route intravenous
[5] = tested on: Mus musculus; test: Effect of compound on life span of mice inoculated intravenously with lewis lung carcinoma at the dose of 6.25 mg/kg in experiment 4; conditions: route intravenous
[6] = tested on: Mus musculus; test: Effect of compound on life span of mice inoculated intravenously with lewis lung carcinoma at the dose of 800 mg/kg in experiment 1; conditions: route intravenous
[7] = tested on: Mus musculus; test: Effect of compound on life span of mice inoculated intravenously with lewis lung carcinoma at the dose of 800 mg/kg in experiment 2; conditions: route intravenous
[8] = tested on: Mus musculus; test: Effect of compound on life span of mice inoculated intravenously with lewis lung carcinoma at the dose of 800 mg/kg in experiment 3; conditions: route intravenous
[9] = tested on: Mus musculus; test: Number of survivors out of 10 mice after 60 days infected with lewis lung carcinoma at the dose of 100 mg/kg in experiment 1
[10] = tested on: Mus musculus; test: Number of survivors out of 10 mice after 60 days infected with lewis lung carcinoma at the dose of 100 mg/kg in experiment 2
[11] = tested on: Mus musculus; test: Number of survivors out of 10 mice after 60 days infected with lewis lung carcinoma at the dose of 100 mg/kg in experiment 3
[12] = tested on: Mus musculus; test: Number of survivors out of 10 mice after 60 days infected with lewis lung carcinoma at the dose of 12.5 mg/kg in experiment 4
[13] = tested on: Mus musculus; test: Number of survivors out of 10 mice after 60 days infected with lewis lung carcinoma at the dose of 200 mg/kg in experiment 1
[14] = tested on: Mus musculus; test: Number of survivors out of 10 mice after 60 days infected with lewis lung carcinoma at the dose of 200 mg/kg in experiment 2
[15] = tested on: Mus musculus; test: Number of survivors out of 10 mice after 60 days infected with lewis lung carcinoma at the dose of 200 mg/kg in experiment 3
[16] = tested on: Mus musculus; test: Number of survivors out of 10 mice after 60 days infected with lewis lung carcinoma at the dose of 25 mg/kg in experiment 1
[17] = tested on: Mus musculus; test: Number of survivors out of 10 mice after 60 days infected with lewis lung carcinoma at the dose of 25 mg/kg in experiment 2
[18] = tested on: Mus musculus; test: Number of survivors out of 10 mice after 60 days infected with lewis lung carcinoma at the dose of 25 mg/kg in experiment 3
[19] = tested on: Mus musculus; test: Number of survivors out of 10 mice after 60 days infected with lewis lung carcinoma at the dose of 25 mg/kg in experiment 4
[20] = tested on: Mus musculus; test: Number of survivors out of 10 mice after 60 days infected with lewis lung carcinoma at the dose of 3.12 mg/kg in experiment 4
[21] = tested on: Mus musculus; test: Effect of compound on life span of mice inoculated intravenously with lewis lung carcinoma at the dose of 12.5 mg/kg in experiment 4; conditions: route intravenous
[22] = tested on: Mus musculus; test: Effect of compound on life span of mice inoculated intravenously with lewis lung carcinoma at the dose of 200 mg/kg in experiment 3; conditions: route intravenous
[23] = tested on: Mus musculus; test: Effect of compound on life span of mice inoculated intravenously with lewis lung carcinoma at the dose of 25 mg/kg in experiment 3; conditions: route intravenous
[24] = tested on: Mus musculus; test: Effect of compound on life span of mice inoculated intravenously with lewis lung carcinoma at the dose of 25 mg/kg in experiment 4; conditions: route intravenous
[25] = tested on: Mus musculus; test: Effect of compound on life span of mice inoculated intravenously with lewis lung carcinoma at the dose of 3.12 mg/kg in experiment 4; conditions: route intravenous
[26] = tested on: Mus musculus; test: Effect of compound on life span of mice inoculated intravenously with lewis lung carcinoma at the dose of 1.56 mg/kg in experiment 4; conditions: route intravenous
[27] = tested on: Mus musculus; test: Effect of compound on life span of mice inoculated intravenously with lewis lung carcinoma at the dose of 100 mg/kg in experiment 1; conditions: route intravenous
[28] = tested on: Mus musculus; test: Effect of compound on life span of mice inoculated intravenously with lewis lung carcinoma at the dose of 100 mg/kg in experiment 2; conditions: route intravenous
[29] = tested on: Mus musculus; test: Effect of compound on life span of mice inoculated intravenously with lewis lung carcinoma at the dose of 0.78 mg/kg in experiment 4; conditions: route intravenous
[30] = tested on: Mus musculus; test: Average body weight in grams on day 5 minus average body weight on day 1 at the dose of 200 mg/kg in experiment 3
[31] = tested on: Mus musculus; test: Average body weight in grams on day 5 minus average body weight on day 1 at the dose of 25 mg/kg in experiment 1
[32] = tested on: Mus musculus; test: Average body weight in grams on day 5 minus average body weight on day 1 at the dose of 25 mg/kg in experiment 2
[33] = tested on: Mus musculus; test: Average body weight in grams on day 5 minus average body weight on day 1 at the dose of 25 mg/kg in experiment 3
[34] = tested on: Mus musculus; test: Average body weight in grams on day 5 minus average body weight on day 1 at the dose of 25 mg/kg in experiment 4
[35] = tested on: Mus musculus; test: Average body weight in grams on day 5 minus average body weight on day 1 at the dose of 0.78 mg/kg in experiment 4
[36] = tested on: Mus musculus; test: Average body weight in grams on day 5 minus average body weight on day 1 at the dose of 1.56 mg/kg in experiment 4
[37] = tested on: Mus musculus; test: Average body weight in grams on day 5 minus average body weight on day 1 at the dose of 100 mg/kg in experiment 1
[38] = tested on: Mus musculus; test: Average body weight in grams on day 5 minus average body weight on day 1 at the dose of 100 mg/kg in experiment 2
[39] = tested on: Mus musculus; test: Average body weight in grams on day 5 minus average body weight on day 1 at the dose of 100 mg/kg in experiment 3
[40] = tested on: Mus musculus; test: Average body weight in grams on day 5 minus average body weight on day 1 at the dose of 12.5 mg/kg in experiment 4
[41] = tested on: Mus musculus; test: Number of survivors out of 10 mice after 60 days infected with lewis lung carcinoma at the dose of 400 mg/kg in experiment 1
[42] = tested on: Mus musculus; test: Number of survivors out of 10 mice after 60 days infected with lewis lung carcinoma at the dose of 0.78 mg/kg in experiment 4
[43] = tested on: Mus musculus; test: Number of survivors out of 10 mice after 60 days infected with lewis lung carcinoma at the dose of 1.56 mg/kg in experiment 4
[44] = tested on: Mus musculus; test: Number of survivors out of 10 mice after 60 days infected with lewis lung carcinoma at the dose of 400 mg/kg in experiment 2
[45] = tested on: Mus musculus; test: Number of survivors out of 10 mice after 60 days infected with lewis lung carcinoma at the dose of 400 mg/kg in experiment 3
[46] = tested on: Mus musculus; test: Number of survivors out of 10 mice after 60 days infected with lewis lung carcinoma at the dose of 50 mg/kg in experiment 1
[47] = tested on: Mus musculus; test: Number of survivors out of 10 mice after 60 days infected with lewis lung carcinoma at the dose of 50 mg/kg in experiment 2
[48] = tested on: Mus musculus; test: Number of survivors out of 10 mice after 60 days infected with lewis lung carcinoma at the dose of 50 mg/kg in experiment 3
[49] = tested on: Mus musculus; test: Number of survivors out of 10 mice after 60 days infected with lewis lung carcinoma at the dose of 6.25 mg/kg in experiment 4
[50] = tested on: Mus musculus; test: Number of survivors out of 10 mice after 60 days infected with lewis lung carcinoma at the dose of 800 mg/kg in experiment 1
[51] = tested on: Mus musculus; test: Number of survivors out of 10 mice after 60 days infected with lewis lung carcinoma at the dose of 800 mg/kg in experiment 2
[52] = tested on: Mus musculus; test: Number of survivors out of 10 mice after 60 days infected with lewis lung carcinoma at the dose of 800 mg/kg in experiment 3
[53] = tested on: Mus musculus; test: Average body weight in grams on day 5 minus average body weight on day 1 at the dose of 200 mg/kg in experiment 1
[54] = tested on: Mus musculus; test: Average body weight in grams on day 5 minus average body weight on day 1 at the dose of 200 mg/kg in experiment 2
[55] = tested on: Mus musculus; test: Average body weight in grams on day 5 minus average body weight on day 1 at the dose of 3.12 mg/kg in experiment 4
[56] = tested on: Mus musculus; test: Average body weight in grams on day 5 minus average body weight on day 1 at the dose of 400 mg/kg in experiment 1
[57] = tested on: Mus musculus; test: Average body weight in grams on day 5 minus average body weight on day 1 at the dose of 400 mg/kg in experiment 2
[58] = tested on: Mus musculus; test: Average body weight in grams on day 5 minus average body weight on day 1 at the dose of 400 mg/kg in experiment 3
[59] = tested on: Mus musculus; test: Average body weight in grams on day 5 minus average body weight on day 1 at the dose of 50 mg/kg in experiment 1
[60] = tested on: Mus musculus; test: Average body weight in grams on day 5 minus average body weight on day 1 at the dose of 50 mg/kg in experiment 2
[61] = tested on: Mus musculus; test: Average body weight in grams on day 5 minus average body weight on day 1 at the dose of 50 mg/kg in experiment 3
[62] = tested on: Mus musculus; test: Average body weight in grams on day 5 minus average body weight on day 1 at the dose of 6.25 mg/kg in experiment 4
[63] = tested on: Mus musculus; test: Average body weight in grams on day 5 minus average body weight on day 1 at the dose of 800 mg/kg in experiment 1
[64] = tested on: Mus musculus; test: Average body weight in grams on day 5 minus average body weight on day 1 at the dose of 800 mg/kg in experiment 2
[65] = tested on: Mus musculus; test: Average body weight in grams on day 5 minus average body weight on day 1 at the dose of 800 mg/kg in experiment 3

NC(=O)c1csc([C@@H]2O[C@H](CO)[C@@H](O)[C@H]2O)n1 [TIAZOFURIN]
Median life span [1]: 9.5 days | Median life span [2]: 20 days | Median life span [3]: 47 days | Median life span [4]: 55 days | Median life span [5]: 25.3 days | Median life span [6]: 11.3 days | Median life span [7]: 8.5 days | Median life span [8]: 11.3 days | Survivors [9]: 9 | Survivors [10]: 9 | Survivors [11]: 10 | Survivors [12]: 7 | Survivors [13]: 10 | Survivors [14]: 10 | Survivors [15]: 8 | Survivors [16]: 10 | Survivors [17]: 10 | Survivors [18]: 7 | Survivors [19]: 9 | Survivors [20]: 0 | Median life span [21]: 39.5 days | Median life span [22]: 16 days | Median life span [23]: 47 days | Median life span [24]: 7 days | Median life span [25]: 22.8 days | Median life span [26]: 23 days | Median life span [27]: 17 days | Median life span [28]: 46 days | Median life span [29]: 20 days | Weight change [30]: 0.7 g | Weight change [31]: 1.2 g | Weight change [32]: 1 g | Weight change [33]: 1.1 g | Weight change [34]: 1.5 g | Weight change [35]: 2 g | Weight change [36]: 1.7 g | Weight change [37]: 1.3 g | Weight change [38]: 1.3 g | Weight change [39]: 0.9 g | Weight change [40]: 1.9 g | Survivors [41]: 7 | Survivors [42]: 0 | Survivors [43]: 0 | Survivors [44]: 10 | Survivors [45]: 6 | Survivors [46]: 10 | Survivors [47]: 9 | Survivors [48]: 9 | Survivors [49]: 0 | Survivors [50]: 6 | Survivors [51]: 1 | Survivors [52]: 0 | Weight change [53]: 1.3 g | Weight change [54]: 0.7 g | Weight change [55]: 1.8 g | Weight change [56]: 1.2 g | Weight change [57]: 0.4 g | Weight change [58]: 0.5 g | Weight change [59]: 2.2 g | Weight change [60]: 1.6 g | Weight change [61]: 1.2 g | Weight change [62]: 2.3 g | Weight change [63]: 1.3 g | Weight change [64]: -2.1 g | Weight change [65]: -0.8 g
